Data published in patent publication US20220144815A1, “1,3,4-OXADIAZOLES AND THEIR DERIVATIVES AS NEW ANTIFUNGAL AGENTS” (Bayer Aktiengesellschaft, priority 2018, published 2022).

Assay: Log P by HPLC on reversed phase columns, method [a] (EEC directive 79/831 Annex V.A8)
Format: physicochemical
Conditions: not given
Method in brief: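 Log P calibrated with C3–C16 straight-chain alkan-2-ones of known Log P, interpolating linearly between retention times. Method per EEC 79/831 Annex V.A8: reversed-phase LC-UV in the acidic range, water/0.1% formic acid and acetonitrile gradient from 10% to 95% acetonitrile.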

| SMILES | chromatographic logP |
| --- | --- |
| CC(Nc1ncc(-c2nnc(C(F)F)o2)cn1)c1ccc(Cl)nc1 (racemic) [I.214, N-[(1RS)-1-(6-chloropyridin-3-yl)ethyl]-5-[5-(difluoromethyl)-1,3,4-oxadiazol-2-yl]pyrimidin-2-amine] | 2.27 |

Same assay, conditions: log P determined according to method [a] (HPLC on reversed phase columns)

| SMILES | logP |
| --- | --- |
| COC(=O)c1ccc(-c2nnc(C(F)F)o2)cc1 [Example I-003] | 2.35 |
| Fc1ccccc1Nc1ncc(-c2nnc(C(F)F)o2)cn1 [Example I-093] | 2.43 |
| CN(C(=O)c1ccc(-c2nnc(C(F)(F)F)o2)cc1)c1ccccc1 [Example I-026] | 3.04 |
| O=C(O)c1ccc(-c2nnc(C(F)(F)F)o2)cc1 [Example I-004] | 2.20 |
| Fc1ccc(C2(Nc3ccc(-c4nnc(C(F)F)o4)cn3)CC2)cc1 [Example I-054] | 2.79 |
| FC(F)c1nnc(-c2ccc(-n3cccn3)nc2)o1 [Example I-036] | 2.31 |
| FC(F)c1nnc(-c2ccc(-n3ccnn3)cc2)o1 [Example I-005] | 1.73 |
| FC(F)c1nnc(-c2cnc(N3CCOCC3)nc2)o1 [Example I-074] | 1.87 |
| CC(Nc1ccc(-c2nnc(C(F)F)o2)cn1)c1ccc(F)cc1 (stereo not shown) [Example I-052] | 2.95 |
| CN(C)NC(=O)c1ccc(-c2nnc(C(F)F)o2)cn1 [Example I-042] | 1.14 |
| CN(C)Nc1ncc(-c2nnc(C(F)F)o2)cn1 [Example I-064] | 0.76 |
| FC(F)c1nnc(-c2ccc(-c3ccco3)nc2)o1 [Example I-035] | 2.33 |
| FC(F)c1nnc(-c2ccc(-c3ccccc3)cc2)o1 [Example I-007] | 3.57 |
| N#Cc1ccc(-c2ncc(-c3nnc(C(F)F)o3)cn2)cc1 [Example I-085] | 2.72 |
| FC(F)c1nnc(-c2cnc(Cl)nc2)o1 [Example I-061] | 1.55 |
| CCc1noc(-c2ccc(-c3nnc(C(F)F)o3)cc2)n1 [Example I-015] | 2.94 |
| COCCNC(=O)c1ccc(-c2nnc(C(F)F)o2)cc1 [Example I-016] | 1.58 |
| COC(=O)c1ccc(-c2nnc(C(F)(F)F)o2)cc1 [Example I-006] | 2.97 |
| FC(F)c1nnc(-c2ccc(COc3ccc(Cl)cc3)cc2)o1 [Example I-024] | 4.03 |

Same assay, conditions: reversed phase HPLC column; Method A: LC-UV, acidic range, 0.1% formic acid in water and acetonitrile; read-out: Log P

| SMILES | chromatographic logP |
| --- | --- |
| CCOC(=O)c1cnc(NC2(c3ccccc3)CCC2)nc1 [ethyl 2-[(1-phenylcyclobutyl)amino]pyrimidine-5-carboxylate] | 3.53 |

Same assay, conditions: reversed phase HPLC column; log P determined according to method [a] (HPLC on reversed phase columns); read-out: logP

| SMILES | chromatographic logP |
| --- | --- |
| Fc1ccccc1Nc1ncc(-c2nnc(C(F)(F)F)s2)cn1 [I.130, N-(2-fluorophenyl)-5-[5-(trifluoromethyl)-1,3,4-thiadiazol-2-yl]pyrimidin-2-amine] | 3.3 |
| COc1ccccc1Nc1ncc(-c2nnc(C(F)F)o2)cn1 [I.109, 5-[5-(difluoromethyl)-1,3,4-oxadiazol-2-yl]-N-(2-methoxyphenyl)pyrimidin-2-amine] | 2.8 |
| Fc1cccc(F)c1C1(Nc2ncc(-c3nnc(C(F)F)o3)cn2)CC1 [I.164, 5-[5-(difluoromethyl)-1,3,4-oxadiazol-2-yl]-N-[1-(2,6-difluorophenyl)cyclopropyl]pyrimidin-2-amine] | 2.95 |
| FC(F)c1nnc(-c2cnc(OC3(c4ccccn4)COC3)nc2)o1 [I.143, 5-[5-(difluoromethyl)-1,3,4-oxadiazol-2-yl]-2-{[3-(pyridin-2-yl)oxetan-3-yl]oxy}pyrimidine] | 1.66 |
| CC(C)(Nc1ncc(-c2nnc(C(F)F)o2)cn1)c1c(F)cccc1F [I.168, 5-[5-(difluoromethyl)-1,3,4-oxadiazol-2-yl]-N-[2-(2,6-difluorophenyl)propan-2-yl]pyrimidin-2-amine] | 3.34 |
| C[C@@H](Nc1ncc(-c2nnc(C(F)F)o2)cn1)c1ccc(F)cc1 [I.125a, 5-[5-(difluoromethyl)-1,3,4-oxadiazol-2-yl]-N-[(1R)-1-(4-fluorophenyl)ethyl]pyrimidin-2-amine] | 2.86 |

Same assay, conditions: reversed phase HPLC column; method [a], HPLC on reversed phase columns; read-out: logP

| SMILES | chromatographic logP |
| --- | --- |
| FC(F)c1nnc(-c2cnc(NC3(c4ccc(Cl)cc4Cl)CC3)nc2)o1 [I.255, N-[1-(2,4-dichlorophenyl)cyclopropyl]-5-[5-(difluoromethyl)-1,3,4-oxadiazol-2-yl]pyrimidin-2-amine] | 4.05 |
| FC(F)c1nnc(-c2cnc(NC3(c4cccs4)CCCC3)nc2)o1 [I.225, 5-[5-(difluoromethyl)-1,3,4-oxadiazol-2-yl]-N-[1-(2-thienyl)cyclopentyl]pyrimidin-2-amine] | 3.45 |
| FC(F)c1nnc(-c2cnc(NC3(Cc4ccccc4)CC3)nc2)o1 [I.201, N-(1-benzylcyclopropyl)-5-[5-(difluoromethyl)-1,3,4-oxadiazol-2-yl]pyrimidin-2-amine] | 2.99 |
| CC(C)(Nc1ncc(-c2nnc(C(F)F)o2)cn1)c1cccnc1 [I.199, 5-[5-(difluoromethyl)-1,3,4-oxadiazol-2-yl]-N-[2-(pyridin-3-yl)propan-2-yl]pyrimidin-2-amine] | 0.91 |
| CC(Nc1ncc(-c2nnc(C(F)F)o2)cn1)c1cccc(OC(F)(F)F)c1 (racemic) [I.257, 5-[5-(difluoromethyl)-1,3,4-oxadiazol-2-yl]-N-{(1RS)-1-[3-(trifluoromethoxy)phenyl]ethyl}pyrimidin-2-amine] | 3.53 |
| Cc1ccc(C(C)(CO)Nc2ncc(-c3nnc(C(F)F)o3)cn2)cc1C (racemic) [I.235, (2RS)-2-({5-[5-(difluoromethyl)-1,3,4-oxadiazol-2-yl]pyrimidin-2-yl}amino)-2-(3,4-dimethylphenyl)propan-1-ol] | 2.68 |
| CC(C)(Nc1ncc(-c2nnc(C(F)F)o2)cn1)c1ccccc1F [I.212, 5-[5-(difluoromethyl)-1,3,4-oxadiazol-2-yl]-N-[2-(2-fluorophenyl)propan-2-yl]pyrimidin-2-amine] | 3.19 |
| FC(F)c1nnc(-c2cnc(NC3CCCC3c3ccccc3)nc2)o1 (racemic) [I.217, 5-[5-(difluoromethyl)-1,3,4-oxadiazol-2-yl]-N-[(1RS)-2-phenylcyclopentyl]pyrimidin-2-amine] | 3.44 |
| FC(F)Oc1ccccc1C1(Nc2ncc(-c3nnc(C(F)F)o3)cn2)CC1 [I.248, N-{1-[2-(difluoromethoxy)phenyl]cyclopropyl}-5-[5-(difluoromethyl)-1,3,4-oxadiazol-2-yl]pyrimidin-2-amine] | 3.21 |
| FC(F)c1nnc(-c2cnc(NC(c3ccccc3)c3ccccc3)nc2)o1 [I.238, 5-[5-(difluoromethyl)-1,3,4-oxadiazol-2-yl]-N-(diphenylmethyl)pyrimidin-2-amine] | 3.52 |
| Fc1ccc([C@H]2C[C@H]2Nc2ncc(-c3nnc(C(F)F)o3)cn2)cc1 (racemic) [I.206, 5-[5-(difluoromethyl)-1,3,4-oxadiazol-2-yl]-N-[rac-(1R,2R)-2-(4-fluorophenyl)cyclopropyl]pyrimidin-2-amine] | 2.97 |
| CC(Nc1ncc(-c2nnc(C(F)F)o2)cn1)c1cscn1 (racemic) [I.194, 5-[5-(difluoromethyl)-1,3,4-oxadiazol-2-yl]-N-[(1RS)-1-(1,3-thiazol-4-yl)ethyl]pyrimidin-2-amine] | 1.8 |
| FC(F)c1nnc(-c2cnc(NC3(c4ccccn4)CCCC3)nc2)o1 [I.219, 5-[5-(difluoromethyl)-1,3,4-oxadiazol-2-yl]-N-[1-(pyridin-2-yl)cyclopentyl]pyrimidin-2-amine] | 1.38 |
